Here are results for four compounds from PMC12163827, “Identification of Novel Leishmania donovani Nucleoside Hydrolase Inhibitors from Banisteriopsis laevifolia Using Affinity Selection-Mass Spectrometry” (ACS Omega, 2025).

Type in all cases: biochemical
The target in test [1] is T1, Leishmania donovani nucleoside hydrolase (LdNH) (Leishmania donovani, UniProt Q8WQX2).
T1 construct: gene iunh
T1 sequence (Q8WQX2 1-314): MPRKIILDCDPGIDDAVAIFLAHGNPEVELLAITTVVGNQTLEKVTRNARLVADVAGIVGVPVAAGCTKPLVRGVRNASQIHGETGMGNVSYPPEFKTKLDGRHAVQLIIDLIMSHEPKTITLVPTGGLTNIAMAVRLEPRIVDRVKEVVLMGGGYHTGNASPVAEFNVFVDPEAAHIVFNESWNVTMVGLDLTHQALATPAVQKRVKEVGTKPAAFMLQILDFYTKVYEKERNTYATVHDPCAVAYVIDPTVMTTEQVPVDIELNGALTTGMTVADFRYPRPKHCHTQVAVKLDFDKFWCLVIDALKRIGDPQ
Description: HPLC-DAD inosine hydrolysis assay with immobilized purified LdNH plus […] Triton X-100; also AS-MS (affinity ratio […]).

Test [2] deals with T1, Leishmania donovani nucleoside hydrolase (LdNH). Described as above. This is another data set of the same source.
For test [3] the target is unchanged. Description: HPLC-DAD inosine hydrolysis assay with immobilized LdNH, single concentration […] with Triton X-100; also AS-MS (affinity ratio […]). The following applies: read-out: inhibition at 100 μmol/L (with Triton X-100) (%).
For test [4] the target is unchanged. Described as above. The following applies: read-out: inhibition at 100 μmol/L (with Triton X-100) (%). This is another data set of the same source.

As a reminder, the IC50 is the point on the concentration scale where inhibition reaches its midpoint.

Like-named read-outs stand apart in the source and are kept apart here.

`O=c1c(O[C@@H]2O[C@H](CO)[C@@H](O)[C@H](O)[C@H]2O)c(-c2ccc(O)cc2)oc2cc(O)cc(O)c12` [astragalin]: the IC50 in test [1] amounted to 41.6 ± 8.9 µM. Consider `O=c1c(O[C@@H]2O[C@H](CO)[C@@H](O)[C@H](O)[C@H]2O)c(-c2ccc(O)c(O)c2)oc2cc(O)cc(O)c12` [isoquercetin], for which the IC50 in test [2] was determined as 40.2 ± 16.6 µM. Turning to `O=c1cc(-c2ccc(O)c(O)c2)oc2c([C@@H]3O[C@H](CO)[C@@H](O)[C@H](O)[C@H]3O)c(O)cc(O)c12` [orientin], in test [3], the inhibition at 100 µM turned out to be 30.4%. As for `C[C@@H]1O[C@@H](OC[C@H]2O[C@@H](Oc3c(-c4ccc(O)c(O)c4)oc4cc(O)cc(O)c4c3=O)[C@H](O)[C@@H](O)[C@@H]2O)[C@H](O)[C@H](O)[C@H]1O` [rutin], the inhibition at 100 µM in test [4] stood at 61.2%.
